Laboratory results reported in ChEMBL document CHEMBL2062468, “Identification of first proadrenomedullin N-terminal 20 peptide (PAMP) modulator by means of virtual screening and NMR interaction experiments” (Eur J Med Chem, 2012).
Activity calls are given as the source filed them. No cut-off for these calls is given here.

target: T1, Pro-adrenomedullin (Homo sapiens) (UniProt P35318); test: Binding affinity to human synthetic proadrenomedullin N-terminal 20 peptide assessed as reduction in absorbance at 1 uM after 1 hr by monoclonal antibody method; design: scale not given: the % may be the effect or the level left
T1 sequence (whole entry): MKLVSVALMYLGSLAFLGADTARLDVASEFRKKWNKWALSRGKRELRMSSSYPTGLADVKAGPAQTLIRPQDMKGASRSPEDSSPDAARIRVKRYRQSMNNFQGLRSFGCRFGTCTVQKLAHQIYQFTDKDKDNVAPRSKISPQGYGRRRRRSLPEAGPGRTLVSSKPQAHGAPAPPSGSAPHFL

| SMILES | Activity [%] |
| --- | --- |
| OC[C@H]1O[C@@H](n2cnc3c(SCc4ccccc4)ncnc32)[C@H](O)[C@@H]1O | 109 |
| Nc1nc(-c2ccc3ccccc3c2)cc(-c2cc(-c3ccc4ccccc4c3)nc(N)n2)n1 | 104 |
| Nc1ncnc2nc(-c3ccc(C[PH](c4ccccc4)(c4ccccc4)c4ccccc4)cc3)[nH]c12 | 76 |
| O=S(=O)(O)c1ccc(-c2nnc(-c3ccccn3)nc2-c2ccc(S(=O)(=O)O)o2)o1 | 81.9 |
| O=S(=O)(O)c1ccc2cc(/N=N/c3cc(S(=O)(=O)O)c4cccnc4c3O)ccc2c1 | 86.4 |
| O=C(O)CNC(=O)C1NC(C(F)(F)F)(C(F)(F)F)OC1(C(F)(F)F)C(F)(F)F (stereo unspecified) | 92.1 |
| Cc1ccc(-c2nc(-c3nccc4ccccc34)oc2-c2ccccc2)cc1 | 72.1 |
| Clc1ccc2c(N3CCC(CCC4CCN(c5ncnc6cc(Cl)ccc56)CC4)CC3)ncnc2c1 | 88 |
| CC1c2ccccc2Cn2cc3c(c21)C(=O)c1cccc(OP(=O)(O)OCc2ccccc2)c1C3=O (stereo unspecified) | 107 |
| CN1C(=O)C2N=C(C3CC(=O)CC(c4nc5c(=O)n(C)c(=O)n(C)c5[nH]4)N3)NC2N(C)C1=O (stereo unspecified) | 85.1 |
| c1ccc([PH](CC[PH](c2ccccc2)(c2ccccc2)c2ccccc2)(c2ccccc2)c2ccccc2)cc1 | 84.6 |
| O=C1C(Cl)=C(Sc2nnc3c4ccccc4c4ccccc4c3n2)C(=O)c2ccccc21 | 88.4 |
| S=C1NCN2CCN(CC2)CNC(=S)C(=S)NCN2CCN(CC2)CNC1=S | 88 |
| O=c1[nH]c2ccccc2n1CCCN1CCC(n2c(=O)[nH]c3cc(Cl)ccc32)CC1 | 80.1 |
| S=C(Nc1ccc2c(c1)Cc1ccccc1-2)Nc1ccc2c(c1)Cc1ccccc1-2 | 80.8 |
| O=C1C2C3C=CC(C2C(=O)N1CN1CCSCC1)C1C2C(=O)N(CN4CCSCC4)C(=O)C2C31 (stereo unspecified) | 92.5 |

| SMILES | Activity [%] |
| --- | --- |
| Nc1nc(-c2ccccc2)c(-c2ccccc2)c(-c2nc(N)nc(-c3ccccc3)c2-c2ccccc2)n1 | 109 |
| C[C@]12CC[C@@H]3c4ccc(O)cc4CC[C@H]3[C@@H]1CC[C@@H]2OC(=O)CCC1CCCC1 | 91.2 |
| c1ccc2c(CN3CCN(Cc4c[nH]c5ccccc45)CC3)c[nH]c2c1 | 89.7 |
| O=C(O)c1c(-c2nccc3ccccc23)[nH]c(-c2ccccc2)c1S(=O)(=O)O | 96.7 |
| Cc1ccc2ccccc2c1CSc1nc(N)nc2c1ncn2CC(C)C | 85.5 |
| C(CCc1nnc2c(n1)CCCC2)Cc1nnc2c(n1)CCCC2 | 96.5 |
| C[C@]12CC[C@@H]3c4ccc(O)cc4CC[C@H]3[C@@H]1CC[C@@H]2OC(=O)CCc1ccccc1 | 98.4 |
| FC(F)(F)c1nc2ccc(SSc3ccc4nc(C(F)(F)F)[nH]c4c3)cc2[nH]1 | 109 |
| CC(C)CCC[C@@H](C)[C@H]1CC[C@H]2[C@@H]3CCC4CC(N)CC[C@]4(C)[C@H]3CC[C@]12C (stereo partly specified) | 106 |
| Nc1nc(SCc2ccccc2)c2ncn(Cc3ccccc3)c2n1 | 91.4 |
| c1cc(NNc2cccc(-c3nnn[nH]3)c2)cc(-c2nnn[nH]2)c1 | 95.3 |
| CC1(C)CC(Nc2ccc(Nc3ccccc3)cc2)CC(C)(C)N1 | 96.2 |
| O=C1c2ccccc2C(=O)c2c(NC3CCCCC3)ccc(Nc3ccc(S(=O)(=O)O)cc3)c21 | 101 |
| O=[N+]([O-])c1ccc2c(c1)N=C1OC(c3c[nH]c4ccc(COc5ccccc5)cc34)C(O)=C1N2 (stereo unspecified) | 92.7 |
| Cn1c(=O)c2c(ncn2CN2CCN(Cn3cnc4c3c(=O)n(C)c(=O)n4C)CC2)n(C)c1=O | 76.4 |
| Cn1cnc([N+](=O)[O-])c1Sc1nc(N)nc2c1ncn2[C@H]1C[C@H](O)[C@@H](CO)O1 | 86.3 |

target: T1, Pro-adrenomedullin (Homo sapiens); test: Binding affinity to human proadrenomedullin N-terminal 20 peptide at 500 uM by NMR spectroscopy

| SMILES | Activity |
| --- | --- |
| O=S(=O)(O)c1ccc2cc(/N=N/c3cc(S(=O)(=O)O)c4cccnc4c3O)ccc2c1 | Active |
| CN1C(=O)C2N=C(C3CC(=O)CC(c4nc5c(=O)n(C)c(=O)n(C)c5[nH]4)N3)NC2N(C)C1=O (stereo unspecified) | Active |

target: T1, Pro-adrenomedullin (Homo sapiens); test: Binding affinity to human proadrenomedullin N-terminal 20 peptide assessed as fragmentation of PAMP protein at 500 uM by MS analysis

| SMILES | Activity |
| --- | --- |
| O=S(=O)(O)c1ccc2cc(/N=N/c3cc(S(=O)(=O)O)c4cccnc4c3O)ccc2c1 | Active |

tested on: Mus musculus; test: Induction of angiogenesis in mouse athymic nude mouse implanted with matrigel containing compound at 1 uM measured after 11 days by direct in vivo angiogenesis assay; assay type: functional, organism-based

| SMILES | Activity |
| --- | --- |
| CN1C(=O)C2N=C(C3CC(=O)CC(c4nc5c(=O)n(C)c(=O)n(C)c5[nH]4)N3)NC2N(C)C1=O (stereo unspecified) | Active |
